Like-named read-outs stand apart in the source and are kept apart here.
How the values were obtained:
Vero cells = test: Host cell toxicity read-out of the primary assay (Vero cell count); assay type: cell-based; conditions: Chlorocebus sabaeus, Vero; hits of the bio-actives screen, 10-point dose-response, top concentration 50μM, 72h; read-out: pEC50 (Vero) (converted)
Procedure: (§1) The compounds tested were obtained from the NIH (Clinical Collection) and from SelleckChem (FDA-approved drug library). Compounds were dispensed into black 384-well assay plates (Corning) by acoustic dispensing (LabCyte ECHO). […] Potencies are reported as pEC50 (-LOG(EC50[M])).
(§2) For the primary intracellular assay the infection conditions were chosen so that no trypomastigote egress occurs during the compound incubation time. First, Vero cells were infected overnight with tissue culture derived T. cruzi trypomastigotes in T225 tissue culture flasks (MOI 5). Next, any remaining free trypomastigotes were washed away with serum free MEM and the infected Vero cells were harvested by trypsinisation. The infected Vero cells were then plated into 384-well plates containing the compounds to be tested, at 4000 cells per well in MEM media with 1% FCS. […] The plates were imaged on a Perkin Elmer Operetta high-content imaging system using a 20x objective. Images were analysed using the Columbus system (Perkin Elmer). The algorithm for the primary assay first identified the Vero nuclei followed by demarcation of the cytoplasm and identification of intracellular amastigotes. This algorithm reported mean number of parasites per Vero cell and total number of Vero cells. Data analysis was as described in [22]. […] Hits from the primary screen were selected based on the following criteria: T. cruzi activity (percent inhibition) > (median T. cruzi percent inhibition + 3 x robust Standard Deviation) and Vero activity (percent inhibition) < (median percent Vero inhibition + 3 x robust Standard Deviation).

intracellular T. cruzi [1] = test: Rate-of-kill assay (static-cidal assay in timecourse format); assay type: cell-based, Trypanosoma cruzi (Silvio X10/7 A1) in Vero cells; conditions: for MCC: Trypanosoma cruzi, -LOG(MCC[M]), minimum cidal concentration, lowest concentration clearing at least half as many Vero cells as Nifurtimox (50μM) within 96 h, read-out: pMCC (RoK) (converted); for rate-of-kill profile (onset / rate of cidal activity): timepoints every 24h up to 96 h; for final residual level of infection (percent infected cells at the end of the assay): end of rate-of-kill timecourse (96 h)
Procedure: The rate-of-kill assay uses the same protocol as the static-cidal assay but plates are incubated for 24, 48, 72 and 96 hours prior to fixing. Percent infected data is plotted as a time-course for each compound at every concentration. The minimum cidal concentration (MCC) is defined as the lowest concentration of compound that clears at least half as many Vero cells of intracellular parasites as Nifurtimox (50μM) within the timeframe of the assay.
To obtain rate-of-kill information we carried out the static-cidal assay in timecourse format (Fig 4A), with timepoints taken every 24h.

[2] = system: intracellular T. cruzi amastigotes; test: Primary high-content intracellular T. cruzi amastigote assay; assay type: cell-based, Trypanosoma cruzi (Silvio X10/7 A1) in Vero cells
Procedure: as §1, §2

CYP51 = CYP51 (Trypanosoma cruzi, UniProt Q7Z1V1); test: biochemical; assay type: biochemical
Sequence of CYP51 (Q7Z1V1 whole entry): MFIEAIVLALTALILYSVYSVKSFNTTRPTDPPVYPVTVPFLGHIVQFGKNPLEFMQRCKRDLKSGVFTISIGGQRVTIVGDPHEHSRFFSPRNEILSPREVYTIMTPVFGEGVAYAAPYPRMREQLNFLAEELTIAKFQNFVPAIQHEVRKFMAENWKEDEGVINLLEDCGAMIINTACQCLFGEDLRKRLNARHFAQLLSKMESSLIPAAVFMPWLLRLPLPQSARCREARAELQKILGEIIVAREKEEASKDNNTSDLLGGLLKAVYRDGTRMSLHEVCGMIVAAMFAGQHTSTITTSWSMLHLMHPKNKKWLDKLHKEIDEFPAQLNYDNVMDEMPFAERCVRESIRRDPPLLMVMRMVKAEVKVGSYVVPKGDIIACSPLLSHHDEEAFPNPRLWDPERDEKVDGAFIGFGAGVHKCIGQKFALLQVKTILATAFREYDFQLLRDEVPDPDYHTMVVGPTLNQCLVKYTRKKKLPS

intracellular T. cruzi [3] = test: Static-cidal assay (percent infected Vero cells, 96 h); assay type: cell-based, Trypanosoma cruzi (Silvio X10/7 A1) in Vero cells; conditions: for MAX PI / maximum inhibition in the static-cidal assay: 96h timeframe of the assay
Procedure: The secondary static-cidal assay uses the same protocol as the standard assay with the following changes: infection is done at MOI 10, and infected Vero cells are incubated 88h at 37°C in presence of 5% CO2 prior to trypsinisation and plating. Four hours after plating a control plate (no compounds) was fixed with formaldehyde as described above. Compound containing plates were fixed after incubation for 96 hours. Compounds are run as ten point dose response curves in triplicate. The algorithm for the secondary assay was similar to the primary assay but reported percent infected Vero cells instead of the mean number of parasites.
To assess screening hits for their ability to be cytocidal rather than cytostatic or growth slowing we developed a medium throughput (400 compounds / batch) assay to predict cidality of compounds against intracellular T. cruzi. […] Instead we developed an algorithm that assesses whether a Vero cell is infected or not, and we used the percentage of infected cells as primary measurement for the static-cidal assay. In order to readily identify cidal compounds we normalised the raw data using the starting level of infection as 0% effect and the final level of infection in presence of 50μM Nifurtimox as 100% effect control.

[4] = humans; cited from earlier work
[5] = Trypanosoma cruzi; hits of the bio-actives screen, 10-point dose-response, top concentration 50μM, 72h; read-out: pEC50 (cruzi) (converted)
[6] = read-out: CYP51 pIC50 (converted)
[7] = Trypanosoma cruzi, Vero, 96 h, 0% = starting level of infection, 100% = 50μM Nifurtimox at 96h, only from concentrations not toxic to the host cells, read-out: MAX PI (SC), Maximum Percent Inhibition in the static cidal assay
[8] = Trypanosoma cruzi, 72 h; read-out: EC50
[9] = Trypanosoma cruzi, 72 h; read-out: Mean pEC50 (converted)

Row | IC50 (CYP51; [6]) [nM] | Structure (SMILES) | EC50 (Vero cells) [nM] | MCC (intracellular T. cruzi [1]) [M] | EC50 [2, 5] [nM] | Emax (intracellular T. cruzi [3]; [7]) [%] | rate-of-kill profile (onset / rate of cidal activity) (intracellular T. cruzi [1]) | oral bioavailability [4] | also measured
1 | > 1000 | C[C@]12CC[C@H](O)CC1=CC[C@@H]1[C@@H]2CC[C@]2(C)C(c3cccnc3)=CC[C@@H]12 [Abiraterone] | 31600 | 5.01e-05 | 794 | 60 |  |  | 
2 | > 10000 | CCOC(=O)C1=C(COCCN)NC(C)=C(C(=O)OC)C1c1ccccc1Cl (centres unmarked) [Amlodipine] |  |  | 501 | 113 |  |  | 
3 | > 10000 | CN1CCCC(n2nc(Cc3ccc(Cl)cc3)c3ccccc3c2=O)CC1 (centres unmarked) [Azelastine] | 15800 | 2e-06 | 251 | 106 | a more delayed response | reasonable oral bioavailability | 
4 | 39.8 | c1ccc(-c2ccc(C(c3ccccc3)n3ccnc3)cc2)cc1 (centres unmarked) [Bifonazole] | 15800 | 6.31e-08 | 10 | 69 |  |  | 
5 |  | CN1CCC[C@@H]1CCO[C@](C)(c1ccccc1)c1ccc(Cl)cc1 [Clemastine] |  | 2e-07 |  |  |  | reasonable oral bioavailability | 
6 |  | CCOC(=O)C(C)(C)Oc1ccc(Cl)cc1 [Clofibrate] | 15800 | 1.58e-05 | 6310 | 116 |  | reasonable oral bioavailability | IC50 (CYP51): > 10000 nM
7 | > 10000 | CC(C(O)c1ccc(O)cc1)N1CCC(Cc2ccccc2)CC1 (centres unmarked) [Ifenprodil] | 50100 | 2e-06 | 501 | 117 |  | reasonable oral bioavailability | 
8 |  | CCC(C)n1ncn(-c2ccc(N3CCN(c4ccc(OCC5COC(Cn6cncn6)(c6ccc(Cl)cc6Cl)O5)cc4)CC3)cc2)c1=O (centres unmarked) [Itraconazole] | 15800 | 6.31e-08 | 10 | 71 |  |  | 
9 |  | CC(=O)N1CCN(c2ccc(OCC3COC(Cn4ccnc4)(c4ccc(Cl)cc4Cl)O3)cc2)CC1 (centres unmarked) [Ketoconazole] | 31600 | 7.94e-09 | 5.01 | 61 |  |  | EC50 [2, 8]: 2 nM; EC50 [2, 9]: 2 nM
10 |  | CC1CS(=O)(=O)CCN1/N=C/c1ccc([N+](=O)[O-])o1 (centres unmarked) [Nifurtimox] |  | 5.01e-06 |  |  | killing seen from 24h onwards |  | final residual level of infection (percent infected cells at the end of the assay) (intracellular T. cruzi [1]): ~ 8%; EC50 [2, 8]: 260 nM; EC50 [2, 9]: 251 nM; IC50 (CYP51): > 10000 nM; MAX PI / maximum inhibition in the static-cidal assay (intracellular T. cruzi [3]): around 100%; inhibition at 50 µM (intracellular T. cruzi [3]; [7]): 103%
11 |  | Cc1cn(-c2cc(NC(=O)c3ccc(C)c(Nc4nccc(-c5cccnc5)n4)c3)cc(C(F)(F)F)c2)cn1 [Nilotinib] |  |  | 2510 | 38 | a much slower rate |  | CYP51 inhibition (in words) (CYP51): strong CYP51 inhibition
12 |  | CC[C@@H]([C@H](C)O)n1ncn(-c2ccc(N3CCN(c4ccc(OC[C@@H]5CO[C@@](Cn6cncn6)(c6ccc(F)cc6F)C5)cc4)CC3)cc2)c1=O [Posaconazole] |  | 1e-07 |  | 59 | slower acting with a later onset of cidal activity |  | final residual level of infection (percent infected cells at the end of the assay) (intracellular T. cruzi [1]): ~ 15%; EC50 [2, 8]: 1 nM; EC50 [2, 9]: 1 nM; MAX PI / maximum inhibition in the static-cidal assay (intracellular T. cruzi [3]): 60%
13 | > 10000 | O=C1Cc2cc(CCN3CCN(c4nsc5ccccc45)CC3)c(Cl)cc2N1 [Ziprasidone] | 25100 | 5.01e-06 | 1580 | 111 | fast onset of cidality | reasonable oral bioavailability | 

Row | Structure (SMILES) | IC50 (CYP51; [6]) [nM] | EC50 (Vero cells) [nM] | MCC (intracellular T. cruzi [1]) [M] | EC50 [2, 5] [nM] | Emax (intracellular T. cruzi [3]; [7]) [%] | rate-of-kill profile (onset / rate of cidal activity) (intracellular T. cruzi [1]) | oral bioavailability [4] | also measured
14 | O=C(Cn1ccnc1[N+](=O)[O-])NCc1ccccc1 [Benznidazole] | > 10000 |  |  |  |  | killing seen from 24h onwards |  | final residual level of infection (percent infected cells at the end of the assay) (intracellular T. cruzi [1]): ~ 8%; EC50 ([2]; Trypanosoma cruzi, 72 h): 490 nM; EC50 ([2]; Trypanosoma cruzi, 72 h, read-out: Mean pEC50 (converted)): 501 nM; MAX PI / maximum inhibition in the static-cidal assay (intracellular T. cruzi [3]): around 100%; Emax (intracellular T. cruzi [3]; Trypanosoma cruzi, Vero, 96 h, read-out: MAX PI (SC), Maximum Percent Inhibition in the static cidal assay): 91%
